Laboratory results: US10918645B2 (LIFEARC, priority 2016, dated 2021)

Legend:
Type in all cases: biochemical
Conditions in all cases: 1 μM inhibitor concentration
RSK1 = RSK1 (Homo sapiens (Human), UniProt Q15418); assay: RSK1 kinase selectivity assay
Experimental: MAPKAP-K1a (5-20 mU diluted in 20 mM MOPS pH 7.5, 1 mM EDTA, 0.01% Brij35, 5% glycerol, 0.1% b-mercaptoethanol, 1 mg/ml BSA) is assayed against […] in a final volume of 25.5 μl containing 50 mM Na-b-glycerophosphate pH 7.5, 0.5 mM EDTA, 30 μM substrate peptide, 10 mM magnesium acetate and 0.05 mM [33P-g-ATP] (50-1000 cpm/pmole) and incubated for 40 min at room temperature. Assays are stopped by addition of 5 μl of 0.5 M (3%) orthophosphoric acid and then harvested onto P81 Unifilter plates with a wash buffer of 50 mM orthophosphoric acid.

ROCK2 = ROCK2 (Homo sapiens (Human), UniProt O75116); assay: ROCK2 kinase selectivity assay
Experimental: ROCK-II (ROKa) (5-20 mU diluted in 50 mM Tris pH 7.5, 0.1 mM EGTA, 0.1% b-mercaptoethanol, 1 mg/ml BSA) is assayed against Long S6 substrate peptide ([…]) in a final volume of 25.5 μl containing 50 mM Tris pH 7.5, 0.1 mM EGTA, 30 μM Long S6 substrate peptide, 10 mM magnesium acetate and 0.02 mM [33P-g-ATP] (50-1000 cpm/pmole) and incubated for 30 min at room temperature. Assays are stopped by addition of 5 μl of 0.5 M (3%) orthophosphoric acid and then harvested onto P81 Unifilter plates with a wash buffer of 50 mM orthophosphoric acid.

MNK2 = MNK2 (Homo sapiens (Human), UniProt Q9HBH9); assay: MNK2 kinase selectivity assay
Experimental: 5-20 mU of MNK2 (diluted in 50 mM Tris (pH 7.5), 0.1 mM EGTA, 1 mg/ml BSA, 0.1%, b-Mercaptoethanol) is assayed against substrate peptide (eIF4E) in a final volume of 25.5 μl containing 50 mM Tris (pH 7.5), 0.1 mM EGTA, 0.1%, b-Mercaptoethanol, 0.5 mg/ml substrate peptide, 10 mM magnesium acetate and 0.05 mM [33P-g-ATP](500-1000 cpm/pmole) and incubated for 30 mins at room temperature. Assays are stopped by addition of 5 μl of 0.5M (3%) orthophosphoric acid. Assays are harvested onto P81 Unifilter plates using a wash buffer of 50 mM orthophosphoric acid.

AuroraA = AuroraA (Homo sapiens (Human), UniProt O14965); assay: AuroraA kinase selectivity assay
Experimental: Aurora A (5-20 mU diluted in 50 mM Tris pH 7.5, 0.1 mM EGTA, 0.1% β-mercaptoethanol, 1 mg/ml BSA) is assayed against […] in a final volume of […] containing 50 mM Tris pH 7.5, 0.1 mM EGTA, 0.3 mM […] 10 mM magnesium acetate and 0.005 mM [33P-γ-ATP](50-1000 cpm/pmole) and incubated for 30 min at room temperature. Assays are stopped by addition of 5 μl of 0.5 M (3%) orthophosphoric acid and then harvested onto P81 Unifilter plates with a wash buffer of 50 mM orthophosphoric acid.

MARK3 = MARK3 (Homo sapiens (Human), UniProt P27448); assay: MARK3 kinase selectivity assay
Experimental: MARK3 (5-20 mU diluted in 50 mM Tris pH 7.5, 0.1 mM EGTA, 0.1% b-mercaptoethanol, 1 mg/ml BSA) is assayed against CHKtide substrate ([…]) in a final volume of 25.5 μl containing 50 mM Tris pH 7.5, 0.05% b-mercaptoethanol, 300 μM substrate peptide, 10 mM magnesium acetate and 0.005 mM [33P-g-ATP](50-1000 cpm/pmole) and incubated for 30 min at room temperature. Assays are stopped by addition of 5 μl of 0.5 M (3%) orthophosphoric acid and then harvested onto P81 Unifilter plates with a wash buffer of 50 mM orthophosphoric acid.

NEK6 = NEK6 (Homo sapiens (Human), UniProt Q9HC98); assay: NEK6 kinase selectivity assay
Experimental: NEK6 (5-20 mU diluted in 50 mM Tris (pH 7.5), 0.1 mM EGTA, 1 mg/ml BSA, 0.1%, b-Mercaptoethanol) is assayed against NEK6 peptide ([…]) in a final volume of 25.5 μl containing 50 mM Tris (pH 7.5), 0.1 mM EGTA, 0.01% Brij, 0.1%, b-Mercaptoethanol, NEK6 peptide (0.3 mM), 10 mM magnesium acetate and 0.05 mM [33P-g-ATP](500-1000 cpm/pmole) and incubated for 30 min at room temperature. Assays are stopped by addition of 5 μl of 0.5 M (3%) orthophosphoric acid and then harvested onto P81 Unifilter plates with a wash buffer of 50 mM orthophosphoric acid.

IRAK4 = IRAK4 (Homo sapiens (Human), UniProt Q9NWZ3); assay: IRAK4 kinase selectivity assay
Experimental: (§1) IRAK4 (5-20 mU diluted in 50 mM Tris pH 7.5, 0.1 mM EGTA, 0.1% 0-mercaptoethanol, 1 mg/ml BSA) is assayed against MBP in a final volume of 25.5 μl containing 50 mM Tris pH 7.5, 0.1 mM EGTA, 0.33 mg/ml MBP, 10 mM magnesium acetate and 0.02 mM [33P-γ-ATP] (50-1000 cpm/pmole) and incubated for 30 min at room temperature. Assays are stopped by addition of 5 μl of 0.5 M (3%) orthophosphoric acid and then harvested onto P81 Unifilter plates with a wash buffer of 50 mM orthophosphoric acid.

TrkA = TrkA (Homo sapiens (Human), UniProt P04629); assay: TrkA kinase selectivity assay
Experimental: as §1, with “TrkA” for “IRAK4”, “10 mM MnCl,” for “0.1% 0-mercaptoethanol,”, “a substrate peptide (Poly Glut Tyr)” for “MBP”, “1” for “0.33”, “substrate peptide,” for “MBP,”

TrkA, sequence (P04629 33-796, species assumed): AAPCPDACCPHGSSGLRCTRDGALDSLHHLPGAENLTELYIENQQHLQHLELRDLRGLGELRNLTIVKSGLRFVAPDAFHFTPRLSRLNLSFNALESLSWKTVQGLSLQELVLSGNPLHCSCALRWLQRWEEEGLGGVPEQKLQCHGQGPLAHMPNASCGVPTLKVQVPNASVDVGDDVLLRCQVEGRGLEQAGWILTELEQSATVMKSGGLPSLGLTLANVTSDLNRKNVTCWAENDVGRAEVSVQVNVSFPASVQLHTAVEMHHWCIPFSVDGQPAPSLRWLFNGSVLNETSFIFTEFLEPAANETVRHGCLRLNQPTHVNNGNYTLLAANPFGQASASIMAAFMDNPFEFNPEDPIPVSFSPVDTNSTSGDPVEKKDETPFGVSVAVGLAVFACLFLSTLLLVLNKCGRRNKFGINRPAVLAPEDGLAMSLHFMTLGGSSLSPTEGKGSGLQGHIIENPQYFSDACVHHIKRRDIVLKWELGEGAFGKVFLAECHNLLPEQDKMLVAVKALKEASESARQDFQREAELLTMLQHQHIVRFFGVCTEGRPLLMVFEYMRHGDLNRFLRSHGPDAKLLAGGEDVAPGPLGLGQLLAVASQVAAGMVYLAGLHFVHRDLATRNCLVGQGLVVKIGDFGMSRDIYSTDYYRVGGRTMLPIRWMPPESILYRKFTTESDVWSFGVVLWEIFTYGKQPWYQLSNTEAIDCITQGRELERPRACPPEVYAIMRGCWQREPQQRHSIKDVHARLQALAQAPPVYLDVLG
NEK6, sequence (Q9HC98 whole entry, species assumed): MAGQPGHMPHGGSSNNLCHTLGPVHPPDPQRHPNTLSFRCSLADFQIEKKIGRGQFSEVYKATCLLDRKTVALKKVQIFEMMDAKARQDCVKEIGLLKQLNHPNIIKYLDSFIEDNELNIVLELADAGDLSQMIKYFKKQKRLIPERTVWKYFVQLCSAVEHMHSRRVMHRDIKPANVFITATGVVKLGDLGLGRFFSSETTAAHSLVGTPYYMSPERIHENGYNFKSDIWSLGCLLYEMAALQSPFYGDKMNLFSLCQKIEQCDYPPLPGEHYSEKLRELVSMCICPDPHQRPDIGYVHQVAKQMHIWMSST
RSK1, sequence (Q15418 whole entry, species assumed): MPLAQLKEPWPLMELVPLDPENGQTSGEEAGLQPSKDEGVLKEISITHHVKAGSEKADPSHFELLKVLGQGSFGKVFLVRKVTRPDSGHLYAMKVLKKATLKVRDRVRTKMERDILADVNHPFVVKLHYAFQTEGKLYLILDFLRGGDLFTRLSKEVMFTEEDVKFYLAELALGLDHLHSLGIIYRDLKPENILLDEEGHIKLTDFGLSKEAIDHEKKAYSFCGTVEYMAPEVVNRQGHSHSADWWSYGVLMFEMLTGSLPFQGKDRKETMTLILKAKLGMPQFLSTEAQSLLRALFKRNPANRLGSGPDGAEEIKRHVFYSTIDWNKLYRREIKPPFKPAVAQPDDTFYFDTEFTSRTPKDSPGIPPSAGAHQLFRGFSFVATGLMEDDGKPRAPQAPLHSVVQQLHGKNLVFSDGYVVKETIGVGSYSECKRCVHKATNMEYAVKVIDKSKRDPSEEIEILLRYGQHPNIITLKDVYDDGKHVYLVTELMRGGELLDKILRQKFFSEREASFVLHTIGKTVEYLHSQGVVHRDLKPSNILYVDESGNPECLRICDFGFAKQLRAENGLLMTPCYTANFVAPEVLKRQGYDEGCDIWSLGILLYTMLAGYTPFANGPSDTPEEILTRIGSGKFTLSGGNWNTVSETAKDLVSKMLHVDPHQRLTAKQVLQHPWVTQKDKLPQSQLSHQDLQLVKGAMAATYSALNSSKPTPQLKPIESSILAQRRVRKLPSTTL
MNK2, sequence (Q9HBH9 whole entry, species assumed): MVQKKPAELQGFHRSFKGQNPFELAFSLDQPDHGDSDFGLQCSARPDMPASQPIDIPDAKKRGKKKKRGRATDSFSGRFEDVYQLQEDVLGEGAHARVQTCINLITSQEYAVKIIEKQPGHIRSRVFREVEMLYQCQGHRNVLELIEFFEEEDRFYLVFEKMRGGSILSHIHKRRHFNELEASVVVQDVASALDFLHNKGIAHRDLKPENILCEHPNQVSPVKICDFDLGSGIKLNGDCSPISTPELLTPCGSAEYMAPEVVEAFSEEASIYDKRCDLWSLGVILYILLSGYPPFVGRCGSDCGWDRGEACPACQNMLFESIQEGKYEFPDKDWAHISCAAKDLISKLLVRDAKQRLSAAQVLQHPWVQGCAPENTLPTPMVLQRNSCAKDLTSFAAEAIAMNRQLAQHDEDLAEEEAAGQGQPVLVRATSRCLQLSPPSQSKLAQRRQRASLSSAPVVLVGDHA
IRAK4, sequence (Q9NWZ3 whole entry, species assumed): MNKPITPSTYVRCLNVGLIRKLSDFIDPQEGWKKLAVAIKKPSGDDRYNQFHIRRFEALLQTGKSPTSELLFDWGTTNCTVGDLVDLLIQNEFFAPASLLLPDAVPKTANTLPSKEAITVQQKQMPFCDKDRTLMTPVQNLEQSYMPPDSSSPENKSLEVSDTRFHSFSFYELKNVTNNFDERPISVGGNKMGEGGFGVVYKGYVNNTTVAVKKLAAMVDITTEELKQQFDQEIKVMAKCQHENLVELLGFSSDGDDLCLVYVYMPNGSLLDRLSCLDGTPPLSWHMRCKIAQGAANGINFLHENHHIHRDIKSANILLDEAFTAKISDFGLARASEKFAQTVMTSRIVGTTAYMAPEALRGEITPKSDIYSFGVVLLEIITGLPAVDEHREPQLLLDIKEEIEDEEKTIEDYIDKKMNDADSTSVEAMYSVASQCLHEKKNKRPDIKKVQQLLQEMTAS
ROCK2, sequence (O75116 whole entry, species assumed): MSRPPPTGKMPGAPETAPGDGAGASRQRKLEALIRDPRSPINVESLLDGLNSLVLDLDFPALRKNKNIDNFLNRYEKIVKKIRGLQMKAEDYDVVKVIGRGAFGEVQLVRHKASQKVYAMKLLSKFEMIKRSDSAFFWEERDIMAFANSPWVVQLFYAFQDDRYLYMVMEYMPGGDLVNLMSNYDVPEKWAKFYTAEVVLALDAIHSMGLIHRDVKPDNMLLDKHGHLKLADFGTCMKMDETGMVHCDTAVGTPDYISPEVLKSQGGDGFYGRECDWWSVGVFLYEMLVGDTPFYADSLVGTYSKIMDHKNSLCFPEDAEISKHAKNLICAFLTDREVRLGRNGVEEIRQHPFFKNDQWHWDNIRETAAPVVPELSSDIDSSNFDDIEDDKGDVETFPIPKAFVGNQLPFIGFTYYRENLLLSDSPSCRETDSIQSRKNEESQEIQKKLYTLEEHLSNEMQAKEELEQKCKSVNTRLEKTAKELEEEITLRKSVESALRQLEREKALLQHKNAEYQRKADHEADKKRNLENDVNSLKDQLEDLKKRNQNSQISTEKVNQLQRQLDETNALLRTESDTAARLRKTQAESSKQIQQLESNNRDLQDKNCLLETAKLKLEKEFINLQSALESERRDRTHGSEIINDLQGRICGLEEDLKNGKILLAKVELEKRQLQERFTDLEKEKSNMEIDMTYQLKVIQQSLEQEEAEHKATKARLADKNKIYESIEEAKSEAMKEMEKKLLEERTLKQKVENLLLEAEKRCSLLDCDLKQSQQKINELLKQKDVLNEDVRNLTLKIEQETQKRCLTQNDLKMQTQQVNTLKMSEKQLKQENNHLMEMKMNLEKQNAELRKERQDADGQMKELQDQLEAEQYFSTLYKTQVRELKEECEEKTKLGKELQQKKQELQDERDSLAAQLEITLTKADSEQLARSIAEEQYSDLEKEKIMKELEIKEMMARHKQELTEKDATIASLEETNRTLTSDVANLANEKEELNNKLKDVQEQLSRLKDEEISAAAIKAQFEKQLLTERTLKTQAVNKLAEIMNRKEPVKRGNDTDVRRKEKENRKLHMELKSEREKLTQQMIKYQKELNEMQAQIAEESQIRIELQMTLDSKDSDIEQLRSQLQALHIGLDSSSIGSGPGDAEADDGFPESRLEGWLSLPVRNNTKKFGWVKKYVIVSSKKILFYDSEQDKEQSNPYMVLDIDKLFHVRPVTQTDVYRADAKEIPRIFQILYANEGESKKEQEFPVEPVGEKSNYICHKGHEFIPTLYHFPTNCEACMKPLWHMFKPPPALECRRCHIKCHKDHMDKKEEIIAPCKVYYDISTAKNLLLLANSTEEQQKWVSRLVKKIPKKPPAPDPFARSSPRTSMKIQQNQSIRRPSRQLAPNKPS
AuroraA, sequence (O14965 whole entry): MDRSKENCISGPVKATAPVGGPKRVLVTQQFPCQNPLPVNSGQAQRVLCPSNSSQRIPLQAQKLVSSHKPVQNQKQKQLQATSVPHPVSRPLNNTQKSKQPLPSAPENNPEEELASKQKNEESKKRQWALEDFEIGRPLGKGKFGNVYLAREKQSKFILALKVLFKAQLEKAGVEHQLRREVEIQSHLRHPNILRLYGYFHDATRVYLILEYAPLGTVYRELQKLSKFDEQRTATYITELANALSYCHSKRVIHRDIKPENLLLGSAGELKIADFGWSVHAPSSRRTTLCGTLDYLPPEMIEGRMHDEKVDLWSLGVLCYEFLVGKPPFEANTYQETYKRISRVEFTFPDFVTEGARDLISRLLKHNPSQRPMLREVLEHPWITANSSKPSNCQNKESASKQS

Compound	percentage inhibition of RSK1 (RSK1)	percentage inhibition of ROCK2 (ROCK2)	percentage inhibition of MNK2 (MNK2)	percentage inhibition of AuroraA (AuroraA)	percentage inhibition of MARK3 (MARK3)	percentage inhibition of NEK6 (NEK6)	percentage inhibition of IRAK4 (IRAK4)	percentage inhibition of TrkA (TrkA)
c1cc2[nH]nc3c2c(n1)N(C1CCOCC1)CCC3 [Example 29, 6-(tetrahydro-2H-pyran-4-yl)-6,7,8,9-tetrahydro-2H-1,2,5,6-tetraazabenzo[cd]azulene]	10 percentage	11 percentage	0 percentage	0 percentage	13 percentage	1 percentage	15 percentage	20 percentage
c1cc2[nH]nc3c2c(n1)N(C1CCC1)CCC3 [Example 22, 6-cyclobutyl-6,7,8,9-tetrahydro-2H-1,2,5,6-tetraazabenzo[cd]azulene]	0 percentage	5 percentage	0 percentage	0 percentage	1 percentage	3 percentage	13 percentage	0 percentage
CN1CCC(N2Cc3ccccc3-c3n[nH]c4ccnc2c34)CC1 [Example 55]	41 percentage	14 percentage	40 percentage	9 percentage	47 percentage	0 percentage	9 percentage	5 percentage
CC(C)n1ncc2c1CN(C1CCN(C)CC1)c1nccc3[nH]nc-2c13 [Example 68]	69 percentage	21 percentage	18 percentage	13 percentage	43 percentage	0 percentage	14 percentage	9 percentage
c1cc2[nH]nc3c2c(n1)N(C1CCCC1)CCC3 [Example 23, 6-cyclopentyl-6,7,8,9-tetrahydro-2H-1,2,5,6-tetraazabenzo[cd]azulene]	0 percentage	0 percentage	0 percentage	0 percentage	0 percentage	1 percentage	0 percentage	0 percentage
